Laboratory results reported in US5413990A, “N-terminus modified analogs of LHRH” (Tap Pharmaceuticals Inc., priority 1993, dated 1995).
Numbered stars: 1 amine (or outer) side, 2 acyl side, 3 side chain; on linkers, the order of the positions; unused ones are H or OH. Square brackets hold non-standard residues; d marks the D form. Peptide text beside a SMILES is read from it. * marks the point of attachment. dPhe(4-Cl) = N[C@H](Cc1ccc(Cl)cc1)C(=O)O; NH(2-(2-pyridyl)ethyl) = c1ccc(CCN*)nc1; NH(2-morpholinoethyl) = C(CN1CCOCC1)N*; d2Nal = N[C@H](Cc1ccc2ccccc2c1)C(=O)O; NMeY = CN[C@@H](Cc1ccc(O)cc1)C(=O)O; NHCH2(2-pyridyl) = c1ccc(CN*)nc1; Piperazinyl(4-Me) = CN1CCN(*)CC1; dCit = NC(=O)NCCC[C@@H](N)C(=O)O; d3Pal = N[C@H](Cc1cccnc1)C(=O)O; NH(3-picolyl) = c1cncc(CN*)c1; CO = O=C([*:1])[*:2]

Molecular target: T1, LHRH (Rattus norvegicus, UniProt P30969)
T1 construct: evaluated in an in vitro test for LHRH antagonist potency (pA2); endogenous in cells; host or cells: pituitary cells (rat, from my own knowledge of the cited method)
T1 sequence (P30969 1-327): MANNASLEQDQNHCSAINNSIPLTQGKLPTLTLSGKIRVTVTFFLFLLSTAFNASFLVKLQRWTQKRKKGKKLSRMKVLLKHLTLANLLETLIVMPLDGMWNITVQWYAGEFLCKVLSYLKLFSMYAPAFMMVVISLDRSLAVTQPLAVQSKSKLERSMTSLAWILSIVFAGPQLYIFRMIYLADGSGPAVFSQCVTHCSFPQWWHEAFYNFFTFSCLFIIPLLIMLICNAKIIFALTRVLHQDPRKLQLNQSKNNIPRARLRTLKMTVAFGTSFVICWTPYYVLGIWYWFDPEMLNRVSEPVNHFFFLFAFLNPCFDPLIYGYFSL
Assay: in vitro test for LHRH antagonist potency (pA2)
Format: cell-based
Details: negative logarithm of the antagonist concentration required to shift the response curve produced by the agonist leuprolide to two-fold higher concentration
Protocol: Representative compounds of the present invention were evaluated in an in vitro test for LHRH antagonist potency (pA2). The test employed the method detailed in F. Haviv, et al. J. Med. Chem., 32:2340-2344 (1989). The values of pA2 are the negative logarithms of the concentration of the particular antagonist test compound required to shift the response curve produced by the agonist leuprolide to two-fold higher concentration. (Leuprolide is the LHRH agonist having the structure 5-oxo-Pro^1 -His^2 -Trp^3 -Ser^4 -Tyr^5 -D-Leu^6 -Leu^7 -Arg^8 -Pro^9 -NHEt and is disclosed and claimed in U.S. Pat. No. 4,005,063.) Typically pA2 values of 9.5 or greater are indicative of good LHRH antagonist potency, with values of 10.0 or greater being preferred.

Row | SMILES | Kb
1 | CC(C)C[C@H](NC(=O)[C@@H](CCCNC(N)=O)NC(=O)[C@H](Cc1ccc(O)cc1)N(C)C(=O)[C@H](CO)NC(=O)[C@@H](Cc1cccnc1)NC(=O)[C@@H](Cc1ccc(Cl)cc1)NC(=O)[C@@H](Cc1ccc2ccccc2c1)NC(=O)NCCN1CCOCC1)C(=O)N[C@@H](CCCNC(=N)N)C(=O)N1CCC[C@H]1C(=O)N[C@H](C)C(N)=O [Example 8c, N-(Morpholinoethylaminocarbonyl)-D2Nal-D4ClPhe-D3Pal-Ser-NMeTyr-DCit-Leu-Arg-Pro-DAlaNH2] ({NH(2-morpholinoethyl)-CO}-[d2Nal][dPhe(4-Cl)][d3Pal]S[NMeY][dCit]LRP[dA]-NH2) | 0.049 nM
2 | CC(C)C[C@H](NC(=O)[C@@H](CCCNC(N)=O)NC(=O)[C@H](Cc1ccc(O)cc1)N(C)C(=O)[C@H](CO)NC(=O)[C@@H](Cc1cccnc1)NC(=O)[C@@H](Cc1ccc(Cl)cc1)NC(=O)[C@@H](Cc1ccc2ccccc2c1)NC(=O)N1CCN(C)CC1)C(=O)N[C@@H](CCCNC(=N)N)C(=O)N1CCC[C@H]1C(=O)N[C@H](C)C(N)=O [Example 8d, N-(N'-Methylpiperazinylcarbonyl)-D2Nal-D4ClPhe-D3Pal-Ser-NMeTyr-DCit-Leu-Arg-Pro-DAlaNH2] ({Piperazinyl(4-Me)-CO}-[d2Nal][dPhe(4-Cl)][d3Pal]S[NMeY][dCit]LRP[dA]-NH2) | 0.0398 nM
3 | CC(C)C[C@H](NC(=O)[C@@H](CCCNC(N)=O)NC(=O)[C@H](Cc1ccc(O)cc1)N(C)C(=O)[C@H](CO)NC(=O)[C@@H](Cc1cccnc1)NC(=O)[C@@H](Cc1ccc(Cl)cc1)NC(=O)[C@@H](Cc1ccc2ccccc2c1)NC(=O)NCc1ccccn1)C(=O)N[C@@H](CCCNC(=N)N)C(=O)N1CCC[C@H]1C(=O)N[C@H](C)C(N)=O [Example 8e, N-(2-Pyridyhnethylaminocarbonyl)-D2Nal-D4ClPhe-D3Pal- Ser-NMeTyr-DCit-Leu-Arg-Pro-DAlaNH2] ({NHCH2(2-pyridyl)-CO}-[d2Nal][dPhe(4-Cl)][d3Pal]S[NMeY][dCit]LRP[dA]-NH2) | 0.00676 nM
4 | CC(C)C[C@H](NC(=O)[C@@H](CCCNC(N)=O)NC(=O)[C@H](Cc1ccc(O)cc1)N(C)C(=O)[C@H](CO)NC(=O)[C@@H](Cc1cccnc1)NC(=O)[C@@H](Cc1ccc(Cl)cc1)NC(=O)[C@@H](Cc1ccc2ccccc2c1)NC(=O)NCc1cccnc1)C(=O)N[C@@H](CCCNC(=N)N)C(=O)N1CCC[C@H]1C(=O)N[C@H](C)C(N)=O [Example 8f, N-(3-Pyridyhnethylaminocarbonyl)-D2Nal-D4ClPhe-D3Pal-Ser-NMeTyr-DCit-Leu-Arg-Pro-DAlaNH2] ({NH(3-picolyl)-CO}-[d2Nal][dPhe(4-Cl)][d3Pal]S[NMeY][dCit]LRP[dA]-NH2) | 0.0363 nM
5 | CC(C)C[C@H](NC(=O)[C@@H](CCCNC(N)=O)NC(=O)[C@H](Cc1ccc(O)cc1)N(C)C(=O)[C@H](CO)NC(=O)[C@@H](Cc1cccnc1)NC(=O)[C@@H](Cc1ccc(Cl)cc1)NC(=O)[C@@H](Cc1ccc2ccccc2c1)NC(=O)NCCc1ccccn1)C(=O)N[C@@H](CCCNC(=N)N)C(=O)N1CCC[C@H]1C(=O)N[C@H](C)C(N)=O [Example 8g, N-(2-Pyridylethylaminocarbonyl)-D2Nal-D4ClPhe-D3Pal-Ser-NMeTyr-DCit-Leu-Arg-Pro-DAlaNH2] ({NH(2-(2-pyridyl)ethyl)-CO}-[d2Nal][dPhe(4-Cl)][d3Pal]S[NMeY][dCit]LRP[dA]-NH2) | 0.0178 nM
